From patent US20200108031A1, “Treating Tumors Using TTFields Combined with ABT-751” (Novocure GmbH, priority 2018, published 2020)

What was measured:
A172 cells [1] = assay: Colony formation (clonogenic survival) of A172 cells, TTFields alone and in combination with ABT-751; type: cell-based; conditions: ABT-751 1 μM, 8 hours, TTFields 200 kHz, 3.3 V/cm, 72 hours (continuous or 3×16 hours), FIG. 2
Procedure: (§1) For the first two bars, both without (−) and with (+) ABT-751, TTFields were not applied. For the next two bars, both without (−) and with (+) ABT-751, TTFields were applied for three 16 hour intervals, and each of those 16 hour intervals was followed by an 8 hour interval during which TTFields were not applied. For the next two bars, both without (−) and with (+) ABT-751, TTFields were applied continuously for 72 hours. […] Data are mean±SEM; n≥5; Statistical significance was determined by one-way ANOVA; Tukey-corrected for multiple comparisons; *p<0.05, **p<0.01, ***p<0.001, ****p<0.0001. In all the experiments described herein, TTFields (200 kHz; 3.3V/cm) were applied using an Inovitro™ system.

A172 cells [2] = assay: Growth of A172 cells, TTFields alone and in combination with ABT-751; type: cell-based; conditions: ABT-751 1 μM, 8 hours, TTFields 200 kHz, 3.3 V/cm, 72 hours (continuous or 3×16 hours), FIG. 1
Procedure: as §1

`COc1ccc(S(=O)(=O)Nc2cccnc2Nc2ccc(O)cc2)cc1` [ABT-751, N-[2-(4-hydroxyanilino)pyridin-3-yl]-4-methoxybenzenesulfonamide] was tested, and the “synergy with TTFields on colony formation” value (A172 cells [1]) was “synergizes” and the “synergy with TTFields on cell growth” value (A172 cells [2]) was “synergizes”.
